Holding throughout (experiment): Kinase selectivity, DiscoverX scanMAX Kinase assay panel (% control)
Common to all, as to type: binding

Test [1] has as its target T1, kinases of the scanMAX Kinase assay panel (Homo sapiens, UniProt P07947).
T1 construct: purchased DiscoverX Co. (contract measurement) scanMAX Kinase assay panel
The settings on record: kinase YES; 1 uM in DMSO. In outline: (§1)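 Binding-panel profiling at one concentration, 1 uM in DMSO; values are % of DMSO control after subtracting the positive-control floor. Less than 35% means activity on that kinase.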

For test [2], the target named is T2, kinases of the scanMAX Kinase assay panel (Homo sapiens, UniProt P36894).
T2 construct: purchased DiscoverX Co. (contract measurement) scanMAX Kinase assay panel
The note with it: BMPR1A; 1 uM. In outline:
as §1

The target in test [3] is T3, kinases of the scanMAX Kinase assay panel (Homo sapiens, UniProt P06239).
T3 construct: purchased DiscoverX Co. (contract measurement) scanMAX Kinase assay panel
The note with it: LCK; 1 uM. In outline: as §1

Test [4] addresses T4, kinases of the scanMAX Kinase assay panel (Homo sapiens, UniProt Q8IWQ3).
T4 construct: purchased DiscoverX Co. (contract measurement) scanMAX Kinase assay panel
T4 sequence (Q8IWQ3 1-736): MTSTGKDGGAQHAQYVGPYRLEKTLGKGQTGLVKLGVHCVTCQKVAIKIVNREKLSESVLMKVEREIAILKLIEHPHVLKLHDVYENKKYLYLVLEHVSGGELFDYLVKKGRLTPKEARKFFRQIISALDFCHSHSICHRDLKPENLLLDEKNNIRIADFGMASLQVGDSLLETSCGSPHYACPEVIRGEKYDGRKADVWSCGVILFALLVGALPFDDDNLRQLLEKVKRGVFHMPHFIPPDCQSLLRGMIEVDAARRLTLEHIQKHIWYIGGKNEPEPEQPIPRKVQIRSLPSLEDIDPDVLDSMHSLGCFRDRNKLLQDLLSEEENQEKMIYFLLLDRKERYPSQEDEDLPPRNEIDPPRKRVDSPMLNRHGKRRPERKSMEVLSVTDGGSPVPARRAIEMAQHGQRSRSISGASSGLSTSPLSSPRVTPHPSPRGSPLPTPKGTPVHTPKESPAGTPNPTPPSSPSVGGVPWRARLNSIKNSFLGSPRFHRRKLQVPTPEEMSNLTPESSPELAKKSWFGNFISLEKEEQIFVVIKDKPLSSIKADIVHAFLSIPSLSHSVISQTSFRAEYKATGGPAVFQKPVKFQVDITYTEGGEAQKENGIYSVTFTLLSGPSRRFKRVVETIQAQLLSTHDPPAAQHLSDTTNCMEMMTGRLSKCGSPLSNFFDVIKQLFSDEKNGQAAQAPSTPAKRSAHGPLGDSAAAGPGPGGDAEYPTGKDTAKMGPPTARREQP
The note with it: BRSK2; 1 uM. In outline:
as §1

The target in test [5] is T5, kinases of the scanMAX Kinase assay panel (Homo sapiens, UniProt Q04912).
T5 construct: purchased DiscoverX Co. (contract measurement) scanMAX Kinase assay panel
The note with it: MST1R; 1 uM. The method in brief: as §1

Test [6] addresses T6, kinases of the scanMAX Kinase assay panel (Homo sapiens, UniProt P45985).
T6 construct: purchased DiscoverX Co. (contract measurement) scanMAX Kinase assay panel
T6 sequence (P45985 1-399): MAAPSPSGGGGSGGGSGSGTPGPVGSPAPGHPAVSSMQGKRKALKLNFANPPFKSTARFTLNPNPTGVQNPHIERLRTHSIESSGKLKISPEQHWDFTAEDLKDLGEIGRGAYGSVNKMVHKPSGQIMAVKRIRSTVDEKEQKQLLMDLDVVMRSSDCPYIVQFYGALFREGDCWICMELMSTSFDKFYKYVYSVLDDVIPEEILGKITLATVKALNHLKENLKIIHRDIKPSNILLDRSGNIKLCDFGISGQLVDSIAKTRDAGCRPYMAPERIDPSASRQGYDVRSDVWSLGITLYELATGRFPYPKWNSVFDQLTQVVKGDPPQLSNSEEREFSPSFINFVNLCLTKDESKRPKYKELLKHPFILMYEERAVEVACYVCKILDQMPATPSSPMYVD
The settings on record: MEK4; 1 uM. The method in brief:
as §1

Test [7] has as its target T7, kinases of the scanMAX Kinase assay panel (Homo sapiens, UniProt Q8NI60).
T7 construct: purchased DiscoverX Co. (contract measurement) scanMAX Kinase assay panel
The note with it: ADCK3; 1 uM. In outline:
as §1

Test [8] concerns the target T8, kinases of the scanMAX Kinase assay panel (Plasmodium falciparum, UniProt P61075).
T8 construct: purchased DiscoverX Co. (contract measurement) scanMAX Kinase assay panel
The settings on record: PFPK5(P. falciparum); 1 uM. In outline:
as §1

For test [9], the target named is T9, kinases of the scanMAX Kinase assay panel (Homo sapiens, UniProt P50750).
T9 construct: purchased DiscoverX Co. (contract measurement) scanMAX Kinase assay panel
The settings on record: CDK9; 1 uM. In outline:
as §1

The target in test [10] is T10, kinases of the scanMAX Kinase assay panel (Homo sapiens, UniProt Q00535).
T10 construct: purchased DiscoverX Co. (contract measurement) scanMAX Kinase assay panel
The note with it: CDK5; 1 uM. The method in brief: as §1

For test [11], the target named is T11, kinases of the scanMAX Kinase assay panel (Homo sapiens, UniProt P50613).
T11 construct: purchased DiscoverX Co. (contract measurement) scanMAX Kinase assay panel
The settings on record: CDK7; 1 uM. The method in brief: as §1

For three compounds, remaining binding results are on record in patent US11208412B2 (DAEGU-GYEONGBUK MEDICAL INNOVATION FOUNDATION, priority 2017, dated 2021).

T1 sequence (P07947 whole entry): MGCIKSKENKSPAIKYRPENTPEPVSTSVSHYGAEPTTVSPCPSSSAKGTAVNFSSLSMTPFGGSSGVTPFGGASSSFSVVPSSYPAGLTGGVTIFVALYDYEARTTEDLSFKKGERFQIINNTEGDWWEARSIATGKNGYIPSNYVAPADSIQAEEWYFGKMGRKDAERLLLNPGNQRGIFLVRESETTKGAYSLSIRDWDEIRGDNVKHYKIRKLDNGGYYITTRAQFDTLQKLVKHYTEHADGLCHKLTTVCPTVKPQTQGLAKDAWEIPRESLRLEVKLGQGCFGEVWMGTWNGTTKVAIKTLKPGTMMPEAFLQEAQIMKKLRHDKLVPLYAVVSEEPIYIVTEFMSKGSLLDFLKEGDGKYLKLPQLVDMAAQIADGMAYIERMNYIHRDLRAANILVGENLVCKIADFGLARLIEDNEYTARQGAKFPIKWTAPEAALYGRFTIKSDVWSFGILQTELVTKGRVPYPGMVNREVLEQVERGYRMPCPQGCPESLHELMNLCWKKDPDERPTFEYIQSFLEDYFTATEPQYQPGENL
T8 sequence (P61075 whole entry): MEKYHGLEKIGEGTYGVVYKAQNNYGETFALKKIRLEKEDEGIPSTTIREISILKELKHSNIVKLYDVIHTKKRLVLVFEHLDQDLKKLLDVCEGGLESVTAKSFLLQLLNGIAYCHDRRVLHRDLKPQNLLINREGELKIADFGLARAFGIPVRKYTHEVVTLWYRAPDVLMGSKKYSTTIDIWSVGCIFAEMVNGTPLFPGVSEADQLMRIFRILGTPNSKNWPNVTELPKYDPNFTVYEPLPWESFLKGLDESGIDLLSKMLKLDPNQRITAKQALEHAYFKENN
T7 sequence (Q8NI60 163-647): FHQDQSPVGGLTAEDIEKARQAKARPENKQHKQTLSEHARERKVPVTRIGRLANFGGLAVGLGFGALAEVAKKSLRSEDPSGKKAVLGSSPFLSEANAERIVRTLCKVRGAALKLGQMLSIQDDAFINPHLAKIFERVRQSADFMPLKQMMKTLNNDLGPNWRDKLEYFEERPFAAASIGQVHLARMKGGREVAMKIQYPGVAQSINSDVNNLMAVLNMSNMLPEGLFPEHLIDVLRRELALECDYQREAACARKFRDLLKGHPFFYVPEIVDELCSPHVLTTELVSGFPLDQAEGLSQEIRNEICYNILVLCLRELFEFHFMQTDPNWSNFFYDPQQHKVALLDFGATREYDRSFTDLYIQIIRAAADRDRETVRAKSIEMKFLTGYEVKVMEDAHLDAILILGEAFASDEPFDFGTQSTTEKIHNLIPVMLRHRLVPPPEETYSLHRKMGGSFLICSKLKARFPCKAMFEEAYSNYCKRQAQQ
T3 sequence (P06239 whole entry): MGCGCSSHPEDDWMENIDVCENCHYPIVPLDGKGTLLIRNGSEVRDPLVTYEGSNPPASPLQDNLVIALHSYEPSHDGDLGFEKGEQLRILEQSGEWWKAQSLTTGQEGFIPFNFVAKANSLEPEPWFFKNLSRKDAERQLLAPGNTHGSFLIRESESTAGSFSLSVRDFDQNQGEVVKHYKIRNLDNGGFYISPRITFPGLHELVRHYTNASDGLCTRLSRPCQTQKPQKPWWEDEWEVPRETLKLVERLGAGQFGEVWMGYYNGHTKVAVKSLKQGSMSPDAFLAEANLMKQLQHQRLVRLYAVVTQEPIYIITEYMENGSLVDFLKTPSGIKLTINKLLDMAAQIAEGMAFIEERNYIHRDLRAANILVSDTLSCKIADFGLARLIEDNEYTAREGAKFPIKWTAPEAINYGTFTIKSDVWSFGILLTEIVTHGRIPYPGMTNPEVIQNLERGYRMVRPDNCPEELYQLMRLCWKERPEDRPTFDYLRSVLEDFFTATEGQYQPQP
T10 sequence (Q00535 whole entry): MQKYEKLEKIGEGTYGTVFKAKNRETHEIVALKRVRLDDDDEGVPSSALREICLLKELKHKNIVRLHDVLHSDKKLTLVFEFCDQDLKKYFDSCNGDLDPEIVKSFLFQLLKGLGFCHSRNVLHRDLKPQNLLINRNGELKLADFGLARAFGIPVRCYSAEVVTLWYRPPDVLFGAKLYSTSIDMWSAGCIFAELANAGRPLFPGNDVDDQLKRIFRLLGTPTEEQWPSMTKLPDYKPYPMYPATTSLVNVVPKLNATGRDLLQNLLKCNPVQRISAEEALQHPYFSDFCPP
T2 sequence (P36894 24-532): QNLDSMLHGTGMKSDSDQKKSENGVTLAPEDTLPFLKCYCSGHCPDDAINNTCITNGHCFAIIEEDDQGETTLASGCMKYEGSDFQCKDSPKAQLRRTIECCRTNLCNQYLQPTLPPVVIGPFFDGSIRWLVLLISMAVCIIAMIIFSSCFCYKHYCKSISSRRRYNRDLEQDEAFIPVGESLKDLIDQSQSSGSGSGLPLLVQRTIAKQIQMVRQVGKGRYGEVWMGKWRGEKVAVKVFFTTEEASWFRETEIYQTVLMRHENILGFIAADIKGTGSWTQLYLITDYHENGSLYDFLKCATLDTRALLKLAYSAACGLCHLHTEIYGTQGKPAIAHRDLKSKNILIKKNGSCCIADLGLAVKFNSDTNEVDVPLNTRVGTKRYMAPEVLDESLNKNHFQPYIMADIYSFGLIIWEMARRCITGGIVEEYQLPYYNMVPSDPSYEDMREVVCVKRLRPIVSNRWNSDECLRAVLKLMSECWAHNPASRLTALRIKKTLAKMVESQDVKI
T5 sequence (Q04912 25-1400): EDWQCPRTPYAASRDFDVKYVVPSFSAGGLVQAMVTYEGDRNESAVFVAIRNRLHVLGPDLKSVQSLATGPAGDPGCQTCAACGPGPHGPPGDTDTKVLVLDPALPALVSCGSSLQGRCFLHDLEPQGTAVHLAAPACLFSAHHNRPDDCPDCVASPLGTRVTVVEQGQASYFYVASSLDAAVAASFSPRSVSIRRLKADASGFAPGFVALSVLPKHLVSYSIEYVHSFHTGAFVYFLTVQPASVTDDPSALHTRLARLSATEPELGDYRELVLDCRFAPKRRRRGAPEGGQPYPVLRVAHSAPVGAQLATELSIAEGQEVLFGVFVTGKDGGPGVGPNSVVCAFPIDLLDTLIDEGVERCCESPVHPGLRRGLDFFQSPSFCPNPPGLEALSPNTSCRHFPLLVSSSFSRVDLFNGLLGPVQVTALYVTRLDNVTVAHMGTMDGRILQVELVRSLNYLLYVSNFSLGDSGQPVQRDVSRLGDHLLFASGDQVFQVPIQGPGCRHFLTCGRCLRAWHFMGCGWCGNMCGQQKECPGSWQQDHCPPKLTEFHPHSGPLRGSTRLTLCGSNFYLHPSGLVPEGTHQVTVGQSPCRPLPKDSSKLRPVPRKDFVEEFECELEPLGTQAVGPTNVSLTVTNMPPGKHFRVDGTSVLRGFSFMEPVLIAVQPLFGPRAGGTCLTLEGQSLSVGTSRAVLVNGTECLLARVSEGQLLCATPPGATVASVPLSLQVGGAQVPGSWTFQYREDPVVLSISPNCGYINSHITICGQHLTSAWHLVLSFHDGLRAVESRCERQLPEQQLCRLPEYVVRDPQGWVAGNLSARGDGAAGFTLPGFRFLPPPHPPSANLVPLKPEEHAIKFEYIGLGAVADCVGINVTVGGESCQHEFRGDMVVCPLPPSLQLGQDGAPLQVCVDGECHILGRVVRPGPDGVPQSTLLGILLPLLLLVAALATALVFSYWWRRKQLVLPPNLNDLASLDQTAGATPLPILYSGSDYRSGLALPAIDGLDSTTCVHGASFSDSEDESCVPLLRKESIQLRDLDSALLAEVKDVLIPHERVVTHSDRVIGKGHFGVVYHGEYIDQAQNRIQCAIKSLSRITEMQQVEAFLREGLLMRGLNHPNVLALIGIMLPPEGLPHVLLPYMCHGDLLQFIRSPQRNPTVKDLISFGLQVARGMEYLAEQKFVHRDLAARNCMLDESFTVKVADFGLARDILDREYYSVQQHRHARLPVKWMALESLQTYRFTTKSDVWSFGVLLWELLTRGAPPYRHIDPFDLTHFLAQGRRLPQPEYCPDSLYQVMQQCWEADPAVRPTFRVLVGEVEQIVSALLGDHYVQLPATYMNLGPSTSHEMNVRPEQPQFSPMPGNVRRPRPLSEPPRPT
T9 sequence (P50750 whole entry): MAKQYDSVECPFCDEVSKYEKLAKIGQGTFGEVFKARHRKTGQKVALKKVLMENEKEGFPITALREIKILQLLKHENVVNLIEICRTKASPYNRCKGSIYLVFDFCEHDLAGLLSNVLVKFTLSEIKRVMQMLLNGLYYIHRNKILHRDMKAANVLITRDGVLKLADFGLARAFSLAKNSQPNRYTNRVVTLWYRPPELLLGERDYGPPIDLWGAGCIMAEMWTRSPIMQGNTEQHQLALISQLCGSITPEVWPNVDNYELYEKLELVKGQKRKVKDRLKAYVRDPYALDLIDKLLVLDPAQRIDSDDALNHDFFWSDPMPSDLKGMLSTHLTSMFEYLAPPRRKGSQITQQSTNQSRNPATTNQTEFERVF
T11 sequence (P50613 whole entry): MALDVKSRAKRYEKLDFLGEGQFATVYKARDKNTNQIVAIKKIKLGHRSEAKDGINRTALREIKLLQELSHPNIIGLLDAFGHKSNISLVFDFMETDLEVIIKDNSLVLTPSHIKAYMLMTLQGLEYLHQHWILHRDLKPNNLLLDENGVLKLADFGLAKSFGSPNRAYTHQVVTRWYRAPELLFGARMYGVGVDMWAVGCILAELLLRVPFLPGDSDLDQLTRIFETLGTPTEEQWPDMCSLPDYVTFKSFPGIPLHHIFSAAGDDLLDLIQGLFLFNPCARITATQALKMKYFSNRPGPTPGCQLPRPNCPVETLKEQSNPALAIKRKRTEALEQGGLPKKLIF

Turning to `CC1(Nc2nc(Nc3cnn([C@H]4CCN(C5COC5)C[C@@H]4F)c3Cl)nc3[nH]cc(C#N)c23)CC1` [Example 52, 2-((5-chloro-1-((3S,4S)-3-fluoro-1-(oxetane-3-yl)piperidine-4-yl)-1H-pyrazole-4-yl)amino)((1-methylcyclopropyl)amino)-7H-pyrrolo[2,3-d]pyrimidine-5-carbonitrile], the remaining binding at 1 µM in test [1] turned out to be 10%; in test [2], 100%; in test [3], 19%; in test [4] it was 70%; in test [5], 78%; in test [6] it was 0%. The remaining binding at 1 µM is 98% in test [7]; 100% in test [8]; 84% in test [9]; 63% in [10]; 19% in test [11].
With `CCNc1nc(Nc2ccc(C(=O)N3CCC(N4CCOCC4)CC3)cc2OC)nc2[nH]cc(C(F)(F)F)c12` [Example 104, (4-((4-(ethylamino)-5-(trifluoromethyl)-7H-pyrrolo[2,3-d]pyrimidine-2-yl)amino)-3-methoxyphenyl)(4-morpholinopiperidine-1-yl)methanone], the remaining binding at 1 µM turned out to be 100% in [1]; 100% in test [2]; 100% in test [3]; 100% in test [4]; 95% in [5]; 16% in test [6]. In addition, the remaining binding at 1 µM in test [7] is 100%; in test [8], 100%; in test [9], 100%; in [10], 100%; in test [11], 48%.
As for `CNc1nc(Nc2ccc(C(=O)N3CCOCC3)cc2OC)nc2[nH]cc(C#N)c12` [Example 1, 2-((2-methoxy-4-(morpholine-4-carbonyl)phenyl)amino)-4-(methylamino)-7H-pyrrolo[2,3-d]pyrimidine-5-carbonitrile], the remaining binding at 1 µM worked out at 100% in [1]; 94% in test [2]; 100% in [3]; 89% in test [4]; 88% in [5]; 0% in test [6]. For the same compound, the remaining binding at 1 µM in test [7] came out at 94%; in [8] it was 76%; in [9] it was 96%; in test [10] it was 96%; in [11], 67%.
